Data set [1] addresses T1, human WT GIP receptor (E354) (Homo sapiens, UniProt P48546).
T1 construct: host or cells: Cos7 cells, transient transfection with PEI, pcDNA3.1+
T1 sequence (P48546 22-466): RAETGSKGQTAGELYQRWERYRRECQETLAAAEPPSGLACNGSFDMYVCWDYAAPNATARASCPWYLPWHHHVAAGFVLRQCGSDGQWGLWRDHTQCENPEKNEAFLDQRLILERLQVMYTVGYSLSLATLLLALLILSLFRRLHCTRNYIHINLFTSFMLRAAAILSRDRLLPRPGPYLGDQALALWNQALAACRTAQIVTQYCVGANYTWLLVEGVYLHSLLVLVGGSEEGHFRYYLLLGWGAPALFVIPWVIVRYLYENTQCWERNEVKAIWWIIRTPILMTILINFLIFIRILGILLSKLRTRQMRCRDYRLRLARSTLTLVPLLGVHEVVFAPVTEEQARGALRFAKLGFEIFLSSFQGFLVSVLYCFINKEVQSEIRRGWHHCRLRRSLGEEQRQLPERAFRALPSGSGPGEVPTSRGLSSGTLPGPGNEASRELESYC
Kind of data set: AKT phosphorylation (AlphaLISA pAKT Ser473), WT GIP receptor. It counts as cell-based. The settings on record: for Emax: read-out: Emax pAKT. The procedure:
(§1) Using a PCR thermocycler (Applied Biosystems PCR system 9700, ThermoFisher, CA, United States), the DNA was initially denatured at 95°C for 2 min, followed by 25 cycles of 98°C for 30 s, 66°C for 15 s and 72°C for 3.5 min. Following the PCR reaction, 1 μL Dpn1 was added, and the DNA transformed into XL.10-gold Ultracompetent E. coli (Agilent Technologies, CA, United States). Plasmid DNA was purified using the NucleoBond Xtra Maxi kit (Macherey-Nagel, Germany) and sequenced prior to use (Centre for Genomics, Proteomics and Metabolomics, University of Auckland).
(§2) Cos7 cells were cultured and transfected as previously described ([Tasma et al., 2022]; [Bower et al., 2018]). Briefly, Cos7 cells were cultured in DMEM supplemented with 8% fetal bovine serum (FBS) in a 37°C humidified incubator with 5% CO2 and seeded into 96-well SpectraPlates at a density of 20,000 cells per well 24 h prior to transfection. […] All plasmid sequences were verified prior to use.
(§3) Phosphorylated (p) Protein Kinase B (AKT), extracellular signal-regulated kinase 1/2 (ERK1/2) and CREB were detected using the AlphaLISA SureFire Ultra pAKT (Ser473), AlphaLISA SureFire Ultra pERK1/2 (Thr202/Tyr204) or AlphaLISA SureFire Ultra pCREB (Ser133) assay kit (PerkinElmer) as per the manufacturer’s protocol. Briefly, Cos7 cells were serum-starved in assay media (DMEM +0.1% BSA) for 4 h at 37°C with 5% CO2 prior to peptide stimulation. Peptides were serially diluted in assay media, and cells were incubated with assay media alone or each concentration of peptide for 15 min. FBS (50%) in pERK1/2 and pAKT or 50 μM forskolin in pCREB assays were used as positive controls. Media was then aspirated, and the cells were lysed in 40 μL of the kit lysis buffer, followed by shaking for 10–15 min at room temperature. Ten microliters of cell lysate was transferred to a white 384-well OptiPlate. […] Plates were read on an Envision plate reader (PerkinElmer). […]
(§4) All data were plotted and analyzed using GraphPad Prism 8.0 (GraphPad Software Inc.). […]
Background: Alpha assays give light when donor and acceptor beads are brought close together.

Data set [2] addresses T2, human GIP receptor E354Q variant (Homo sapiens, UniProt P48546, E354Q).
T2 construct: expressed in transfected cells; host or cells: Cos7 cells, transient transfection with PEI, pcDNA3.1+; mutant plasmid made in house from the purchased WT construct
T2 sequence (P48546 22-466 E354Q): T1 sequence (P48546 22-466) with E333Q
The experiment in a line: AKT phosphorylation (AlphaLISA pAKT Ser473), E354Q GIP receptor. It counts as cell-based. The settings on record: for Emax: read-out: Emax pAKT. On the procedure:
as §1, §2, §3, §4

Data set [3] addresses T1, human WT GIP receptor (E354). The experiment in a line: ERK1/2 phosphorylation (AlphaLISA pERK1/2 Thr202/Tyr204), WT GIP receptor. Type of data set: cell-based. The settings on record: read-out: Emax pERK1/2. The procedure:
as §1
(§5) Cos7 cells were cultured and transfected as previously described ([Tasma et al., 2022]; [Bower et al., 2018]). Briefly, Cos7 cells were cultured in DMEM supplemented with 8% fetal bovine serum (FBS) in a 37°C humidified incubator with 5% CO2 and seeded into 96-well SpectraPlates at a density of 20,000 cells per well 24 h prior to transfection. […]
(§6) Phosphorylated (p) Protein Kinase B (AKT), extracellular signal-regulated kinase 1/2 (ERK1/2) and CREB were detected using the AlphaLISA SureFire Ultra pAKT (Ser473), AlphaLISA SureFire Ultra pERK1/2 (Thr202/Tyr204) or AlphaLISA SureFire Ultra pCREB (Ser133) assay kit (PerkinElmer) as per the manufacturer’s protocol. […] Plates were read on an Envision plate reader (PerkinElmer). […]
as §4

The target is the same in data set [4]. Kind of data set: CREB phosphorylation (AlphaLISA pCREB Ser133), WT GIP receptor. It counts as cell-based. As to conditions: for Emax: read-out: Emax pCREB. On the procedure:
as §1, §2, §3, §4

For data set [5] the target is unchanged. The experiment in a line: IP1 accumulation (IP-one Gq kit), WT GIP receptor. It counts as cell-based. On the procedure:
as §1
Cos7 cells were cultured and transfected as previously described ([Tasma et al., 2022]; [Bower et al., 2018]). […]
The IP-one Gq assay kit (Cisbio, PerkinElmer) was used to quantify accumulated myo-inositol-1-phosphate (IP1), a by-product of IP3 produced after receptor-mediated Gαq activation in Cos7 cells, as previously described ([Tasma et al., 2022]; [Bower et al., 2018]). […] Samples were processed as previously described and read using an Envision plate reader (PerkinElmer). IP1 concentrations were determined from a standard curve generated in duplicate.
as §4

The target of data set [6] is T2, human GIP receptor E354Q variant. Kind of data set: CREB phosphorylation (AlphaLISA pCREB Ser133), E354Q GIP receptor. As to conditions: read-out: Emax pCREB. Type of data set: cell-based. On the procedure: as §1, §5, §6, §4
Data set [7] shares this target. Kind of data set: ERK1/2 phosphorylation (AlphaLISA pERK1/2 Thr202/Tyr204), E354Q GIP receptor. As to conditions: read-out: Emax pERK1/2. Type of data set: cell-based. On the procedure:
as §1, §5, §6, §4

For data set [8], the system named is albumin. The settings on record: cited from earlier work. From the text: Understanding the signalling of GIP receptors is essential to elucidating their physiological effects and exploiting this receptor as a drug target. The GIP receptor is often reported to couple to Gαs alone ([Oduori et al., 2020b]). […] This indicates potential coupling to Gαq, as IP1 is a stable by-product of IP3 ([Garbison et al., 2004]). The induction of cAMP accumulation by the endogenous GIP agonists was similar to previous studies ([Hansen et al., 2016]; [Yuliantie et al., 2021]). Tirzep ...

Changes are numbered by the printed parent chain.

For `CC[C@H](C)[C@H](NC(=O)[C@H](CO)NC(=O)[C@H](Cc1ccc(O)cc1)NC(=O)[C@H](CC(=O)O)NC(=O)[C@H](CO)NC(=O)[C@@H](NC(=O)[C@H](Cc1ccccc1)NC(=O)[C@@H](NC(=O)CNC(=O)[C@H](CCC(=O)O)NC(=O)[C@H](C)NC(=O)[C@@H](N)Cc1ccc(O)cc1)[C@@H](C)O)[C@@H](C)CC)C(=O)N[C@@H](C)C(=O)N[C@@H](CCSC)C(=O)N[C@@H](CC(=O)O)C(=O)N[C@@H](CCCCN)C(=O)N[C@H](C(=O)N[C@@H](Cc1c[nH]cn1)C(=O)N[C@@H](CCC(N)=O)C(=O)N[C@@H](CCC(N)=O)C(=O)N[C@@H](CC(=O)O)C(=O)N[C@@H](Cc1ccccc1)C(=O)N[C@H](C(=O)N[C@@H](CC(N)=O)C(=O)N[C@@H](Cc1c[nH]c2ccccc12)C(=O)N[C@@H](CC(C)C)C(=O)N[C@@H](CC(C)C)C(=O)N[C@@H](C)C(=O)N[C@@H](CCC(N)=O)C(=O)N[C@@H](CCCCN)C(N)=O)C(C)C)[C@@H](C)CC` [GIP(1-30)NH2], the EC50 in data set [1] (WT, Cos7, 15 min, DMEM + 0.1% BSA, mean ± s.e.m., n = 3) is 1.48 nM; in data set [2] (E354Q, Cos7, 15 min, DMEM + 0.1% BSA, mean ± s.e.m., n = 3), 0.813 nM; in data set [4] (WT, Cos7, 15 min, DMEM + 0.1% BSA, mean ± s.e.m., n = 3, read-out: pEC50 pCREB (converted)), 0.0631 nM; in data set [5] (WT, Cos7, 90 min, 37°C, DMEM + 0.1% BSA + 1% 10 mM LiCl, mean ± s.e.m., n = 5, read-out: pEC50 IP1 (converted)), 1.62 nM. Moreover, the Emax in data set [1] worked out at 97.1 ± 4.56%; in data set [2], 50.9 ± 1.72%; in data set [3] it was 117 ± 3.91%; in data set [4] it was 117 ± 8.75%; in data set [6], 70.7 ± 32.9%; in data set [7] it was 73.9 ± 9.75%.

Regarding `CC[C@H](C)[C@H](NC(=O)[C@H](CC(C)C)NC(=O)[C@H](Cc1c[nH]c2ccccc12)NC(=O)[C@H](CCC(N)=O)NC(=O)[C@@H](NC(=O)[C@H](Cc1ccccc1)NC(=O)[C@H](C)NC(=O)[C@H](CCCCNC(=O)COCCOCCNC(=O)COCCOCCNC(=O)CC[C@H](NC(=O)CCCCCCCCCCCCCCCCCCC(=O)O)C(=O)O)NC(=O)[C@H](CCC(N)=O)NC(=O)[C@H](C)NC(=O)[C@@H](NC(=O)[C@H](CCCCN)NC(=O)[C@H](CC(=O)O)NC(=O)[C@H](CC(C)C)NC(=O)C(C)(C)NC(=O)[C@@H](NC(=O)[C@H](CO)NC(=O)[C@H](Cc1ccc(O)cc1)NC(=O)[C@H](CC(=O)O)NC(=O)[C@H](CO)NC(=O)[C@@H](NC(=O)[C@H](Cc1ccccc1)NC(=O)[C@@H](NC(=O)CNC(=O)[C@H](CCC(=O)O)NC(=O)C(C)(C)NC(=O)[C@@H](N)Cc1ccc(O)cc1)[C@@H](C)O)[C@@H](C)O)[C@@H](C)CC)[C@@H](C)CC)C(C)C)C(=O)N[C@@H](C)C(=O)NCC(=O)NCC(=O)N1CCC[C@H]1C(=O)N[C@@H](CO)C(=O)N[C@@H](CO)C(=O)NCC(=O)N[C@@H](C)C(=O)N1CCC[C@H]1C(=O)N1CCC[C@H]1C(=O)N1CCC[C@H]1C(=O)N[C@@H](CO)C(N)=O` [Tirzepatide], in data set [8], the albumin binding entry is “binds to albumin”. Also, the Emax in data set [1] stood at 87.7 ± 2.6%; in data set [2], 51.9 ± 8.95%; in data set [4], 91.5 ± 10.9%; in data set [5] (read-out: Emax IP1, % of maximal response) it was 54.9%; in data set [6], 59.4 ± 34.8%; in data set [7], 80.2 ± 17.3%.
